# According to patent US7432369B2, “Pyridyl-substituted porphyrin compounds and methods of use thereof” (Inotek Pharmaceuticals Corporation, priority 2004, dated 2008):
# Columns and labels:
# [1] = tested on: rats subjected to myocardial infarction; experiment: Myocardial infarction by occlusion and reperfusion of the left anterior descending coronary artery; assay type: in vivo, rat; conditions: 5 minutes prior to reperfusion
# Procedure: Rats were subjected to myocardial infarction by occlusion and reperfusion of the left anterior descending coronary artery as previously described in C. Y. Xiao et al., J Pharmacol Exp Ther., August 2004;310(2):498-504. Compound 3 was administered at doses of 1, 3, or 6 mg/kg i.v., 5 minutes prior to reperfusion.
# [2] = tested on: rats subjected to balloon-induced vascular injury; experiment: Balloon-induced vascular injury of the carotid artery; assay type: in vivo, rat; conditions: 1 mg/kg bid
# From the text: Rats were subjected to balloon-induced vascular injury of the carotid artery as previously described in C. Zhang et al., Am J Physiol Heart Circ Physiol., August 2004;287(2):H659-66.
# [3] = tested on: mice subjected to heart failure; experiment: Heart failure induced by aortic banding; assay type: in vivo; conditions: 3 mg/kg/day orally
# Procedure: Mice were subjected to heart failure induced by aortic banding as previously described in C. Y. Xiao et al., J Pharmacol Exp Ther., March 2005;312(3):891-8. Compound 3 was administered at a dose of 3 mg/kg/day orally.
# [4] = tested on: rats subjected to heterotopic heart transplantation; experiment: Heterotopic heart transplantation; assay type: in vivo, rat; conditions: 10 mg/kg/day orally
# Procedure: Rats were subjected to heterotopic heart transplantation as described previously in H. Jiang et al., Transplantation, Jun. 15, 2002;73(11):1808-17. Compound 3 was administered at a dose of 10 mg/kg/day orally.
# [5] = tested on: mice subjected to streptozocin diabetes; experiment: Multiple low dose streptozocin diabetes; assay type: in vivo; conditions: 3 or 10 mg/kg/day ip
# From the text: Mice were subjected to multiple low dose streptozocin diabetes as previously described in J. G. Mabley et al., Br J Pharmacol., July 2001;133(6):909-19.
# [6] = tested on: rats subjected to hemorrhagic shock; experiment: Hemorrhagic shock and resuscitation; assay type: in vivo, rat; conditions: 6 mg/kg i.v., 5 minutes prior to resuscitation
# Procedure: Rats were subjected to 2 hours of hemorrhage, followed by resuscitation as previously described in O. V. Evgenov et al., Crit Care Med., October 2003;31(10):2429-36. Compound 3 was administered at a dose of 6 mg/kg i.v., 5 minutes prior to resuscitation. […] To obtain the results shown in FIG. 7, rats were bled to reach mean BP of 40 mm Hg. This mean BP was maintained for 2 hours, followed by resuscitation with saline at a volume of 2× the shed blood volume. Rats were then observed for 3 hours, and the survival time was recorded. Compound 3 (6 mg/kg) was administered intravenously before the start of resuscitation. To obtain the results shown in FIG. 8, left intraventricular systolic pressure (LVSP), dP/dt, -dP/dt were monitored continuously for 20 minutes from 40 minutes after resuscitation. Compound 3 (6 mg/kg) was administered intravenously before the start of resuscitation. To obtain the results shown in FIG. 9, blood was taken 1 hour after resuscitation. Compound 3 (6 mg/kg) was administered intravenously before the start of resuscitation. To obtain the results shown in FIG. 10, blood was taken at 1 hour after resuscitation. Compound 3 (6 mg/kg) was administered intravenously before the start of resuscitation.
# [7] = tested on: A549 human epithelial cells; experiment: Oxidant or free-radical damage, cell viability (mitochondrial respiration); assay type: cell-based; conditions: A549 cells treated with oxidants and free radicals
# Procedure: (§1) The four right-hand most bar graphs represent cytotoxin plus […] of Compound 3.
# (§2) A549 human epithelial cells and RAW murine macrophages were grown and cultured, then treated with oxidants and free radicals in the presence or absence of varying concentrations of Compound 3 according to the method of C. Szabo et al., Mol Med., October 2002;8(10):571-80. […] Protection is by 3-100 μM of Compound 3.
# RAW murine macrophages = experiment: as above; assay type: cell-based; conditions: RAW cells treated with oxidants and free radicals
# Procedure: as §1, §2
smiles,measurement,setting,value
O=C([O-])c1ccc(C[n+]2ccccc2/C2=C3\C=CC(=N3)/C(c3cccc[n+]3Cc3ccc(C(=O)[O-])cc3)=c3/cc/c4[n]3[Fe]([Cl])[n]3c2ccc3/C(c2cccc[n+]2Cc2ccc(C(=O)[O-])cc2)=C2/C=CC(=N2)\C=4c2cccc[n+]2Cc2ccc(C(=O)[O-])cc2)cc1 [Compound 3],plasma levels of creatine kinase,[1]; 6 mg/kg i.v.,reduced plasma levels of creatine kinase
same,protective effect,[1]; 6 mg/kg i.v.,significant protective effect
same,infarct size,"[1]; 1, 3, or 6 mg/kg i.v.",effective for reducing infarct size
same,degree of intimal hypertrophy,[2],reduced the degree of intimal hypertrophy
same,development of endothelial dysfunction,[2],prevented the development of endothelial dysfunction
same,loss of endothelium-dependent relaxations on the injured side,[2]; FIG. 13,completely prevented this loss of the endothelial function
same,degree of myocardial hypertrophy,[3],reduced the degree of myocardial hypertrophy
same,degree of myocardial hypertrophy,[4],reduced the degree of myocardial hypertrophy
same,development of hyperglycemia,[5],prevented the development of hyperglycemia
same,pancreatic insulin content,[5],normalized pancreatic insulin content
same,blood pressure,[6],effective for stabilizing blood pressure
same,plasma levels of ALT,[6],reduced
same,plasma levels of creatine kinase,[6],reduced plasma levels of creatine kinase
same,survival rate,[6],increasing survival rate
same,concentration giving protection,[7],3 to 100 µM
same,protection against the suppression of cell viability,[7],dose-dependently protected
same,concentration giving protection,RAW murine macrophages,3 to 100 µM
same,protection against the suppression of cell viability,RAW murine macrophages,dose-dependently protected
